{
  "source": "patent US8215314B2",
  "about": "“Photochemical tissue bonding” (The General Hospital Corporation, priority 2000, dated 2012)",
  "key": {"[1]": {"tested_on": "corneal incision, rabbit eyes ex vivo", "test": "IOP required to produce fluid leakage from corneal incision (IOPL) after PTB, ex vivo", "settings": "for mean IOPL: RB 1.5 mM, 514 nm", "procedure": "PTB can be used to seal or repair a tissue, e.g., a wound, e.g., a corneal wound. This example illustrates the experimental procedure designed to test the efficacy of PTB, as described herein, using mammalian corneas ex vivo. Experiments were performed according to the following procedure.\nRabbit eyes were received on ice (Pel-Freez Biologicals) approximately 17-24 hours after sacrifice and enucleation. The eyes were kept on ice and used the same day. The eye to be studied was mounted on a plastic-covered polystyrene block and fixed in position by needles inserted through the extraocular muscles into the polystyrene. The eye was then placed under a dissecting microscope (Reichert Scientific Instruments, Ill.) allowing visualization of the treated area during the entire procedure. A 27 G needle was inserted parallel to the iris, 2 mm anterior to the limbus into clear cornea, and positioned above the lens in the anterior chamber. The needle was connected to both a blood pressure transducer (Harvard Apparatus, Mass.) and a mini-infuser 400 (Bard Harvard) via a T coupler. The pressure transducer consists of a transducer element that is hard wired to an amplifier box and uses a semi-disposable dome with an integral silicone rubber membrane. Pressure inside the dome is transmitted through the membrane to a plastic button whose motion is translated to a voltage. The voltage generated by the transducer amplifier combination is proportional to the […] intraocular pressure (IOP). Signals from the transducer amplifier were recorded using a Macintosh G3 Power book equipped with a PCMICA (DAQCARD—1200) data acquisition card (National Instruments, Tex.). Data acquisition was controlled using programs written using the LabView 4 software package (National Instruments, Tex.). The voltage from the transducer and amplifier was converted to pressure by calibrating with a standing manometer.\nExperiments on individual eyes were initiated by increasing the IOP to 30-40 mm Hg, using water infusion at a rate of 1 mL per minute. An incision was made in the cornea, 1 mm from the limbus and parallel to the iris, using a 3.5 mm angled keratome (Becton Dickinson Co.). For each eye the IOP required to produce fluid leakage from the incision (IOPL) was recorded pre- and post-PTB treatment. A photosensitizer, dissolved in phosphate buffer solution (PBS, pH 7.2, Gibco BRL) was applied to the walls of the incision using a Gastight, 50 μl syringe (Hamilton Co.) with a 27 G needle.\nIrradiations employed a continuous wave (CW) argon-ion laser (Innova 100; Coherent, Inc., Palo Alto, Calif.) at 488 nm (for Fl and R-5-P), 514.5 nm (for RB) or 351 nm (for NHPT). An argon-ion-pumped dye laser (CR-599; Coherent) with 4-dicyanomethylene-2-methyl-6-(p-dimethylaminostyryl)-4H-pyran dye (Exciton, Inc., Dayton, Ohio) was used for irradiation at 661 nm (for MB). Laser light was coupled into a 1 mm diameter quartz fiber and a 1 cm diameter spot on the tissue was created by using a combination of 1 and 2 inch focal length, S1-UV grade fused silica, biconvex lenses (Esco Products), mounted in a SM1 series cage assembly (Thorlabs, N.J.). The 1 cm diameter circular spot was sufficient to cover the entire incision and the optics were adjusted so that the laser light was incident on the cornea at an angle approximately 45° to the plane of the incision. Dose response curves were obtained by varying the duration of the irradiation at a constant irradiance. In separate experiments the effects of laser irradiance were investigated by comparison of the same delivered dose using different irradiances. The doses used ranged from 124 to 1524 J/cm^2 and the irradiances used were 0.64, 1.27, 2.55 and 3.86 W/cm^2. The laser exposure time varied from 33 seconds for the lowest dose using the highest irradiance to 26 minutes, 27 seconds for the highest dose using the lowest irradiance. The IOPL was recorded immediately following treatment. […]"}, "[2]": {"test": "Absorption maxima and absorption coefficients of photosensitizers", "assay_type": "physicochemical", "from_the_text": "The photosensitizers were used as received with the exception of N-HPT which was recrystallized twice from aqueous ethanol before use."}, "cornea": {"tested_on": "cornea", "test": "Examination of eyes for thermal damage after PTB (tissue shrinkage, deformation)", "design": "species or system rabbit", "settings": "RB PTB", "from_the_text": "Post-treatment, the eyes were examined for the presence of thermal damage. Tissue shrinkage and deformation around the wound site were taken as signs of thermal damage. Thermal damage to the cornea was not observed at the lowest irradiance tested (1.27 W/cm2). […] Thermal effects produced using high irradiances may produce collagen contraction resulting in distortion of the patient's vision."}, "[3]": {"tested_on": "rabbit (New Zealand White) corneas", "test": "In vivo PTB of 3.5-mm corneal incisions, incisional bursting pressure", "settings": "1.5 mM RB", "procedure": "PTB was performed in vivo in New Zealand rabbits to repair two types of corneal wounds.\nIn group I 3.5-mm incisions were performed in 20 rabbit (New Zealand White) corneas. Dose and laser irradiance were varied in subgroups of five or more eyes for each condition and appropriate control eyes. Photoactivation was performed with a 514 nm Argon Laser. Wound leak and incisional bursting pressure of the treated and untreated rabbit eyes was determined in vivo, with the animals under anesthetic.\nGroup I wounds were healed using, e.g., 191 J/cm2, applying 1.5 mM RB. The immediate in vivo bursting pressure was 495±10 mm Hg for PTB treated eyes. Under the same conditions the values of the busting pressure in the control eye varied from 15 to 60 mm Hg. One day after surgery, the bursting pressure was the same for PTB treated eyes and control eyes (approximately 450±125 mmHg). At 14 days, the bursting pressure exceeded 500 mm Hg in both PTB-treated and control eyes."}, "[4]": {"tested_on": "bovine tendon / NeuraGen collagen conduit interface", "test": "Tensile strength of PTB bond between NeuraGen conduit and bovine tendon", "settings": "RB dye, 532 nm, fluence of 150-300 Joules, 0.25 cm^2 interface", "procedure": "Additional experiments were also performed to determine the effectiveness of PTB bonding between the NeuraGen™ conduits and an animal tissue, namely bovine tendon tissue. To do this, the tensile strength of a PTB bond formed between the bovine tendon and a segment of Neuregen™ conduit was tested, using various different photoactive dyes. Both the tendon surface and the inner surface of a piece of conduit were coated with RB dye and allowed to sit in the dark for 60 seconds. The two surfaces were then thoroughly dried and pressed together to form a tendon/conduit interface of approximately 0.25 cm^2. The construct was irradiated at 532 nm through the conduit toward the tendon/conduit interface at various fluence levels (Joules). Constructs were then pulled into tension using a tensiometer until the bond between the tendon and the conduit broke. The breaking force was measured in Newtons."}},
  "data": [
    {"smiles": "O=C([O-])c1c(Cl)c(Cl)c(Cl)c(Cl)c1-c1c2cc(I)c(=O)c(I)c-2oc2c(I)c([O-])c(I)cc12.[Na+].[Na+]", "note": "[Rose Bengal]", "values": [
      {"measurement": "mean IOPL post-treatment", "setting": "[1]; 1.5 mM RB and 514 nm laser light", "value": "greater than 300±48 mm Hg"},
      {"measurement": "mean IOPL", "setting": "[1]; 1270 J/cm^2 at 1.27 W/cm^2", "value": 274, "unit": "mm Hg"},
      {"measurement": "mean IOPL", "setting": "[1]; 1270 J/cm^2 at 2.55 W/cm^2", "value": 150, "unit": "mm Hg"},
      {"measurement": "mean IOPL", "setting": "[1]; 1270 J/cm^2 at 3.86 W/cm^2", "value": 130, "unit": "mm Hg"},
      {"measurement": "IOPL", "setting": "[1]; RB, all doses delivered at 1.27 and 2.55 W/cm^2", "value": "greater than 100 mm Hg"},
      {"measurement": "rise in IOPL", "setting": "[1]; RB, doses below 508 J/cm^2 at any irradiance tested", "value": "No significant rise"},
      {"measurement": "increase between pre- and post-treatment IOPL", "setting": "[1]; photosensitizer alone, no laser irradiation", "value": "no significant increase"},
      {"measurement": "absorption maximum", "setting": "[2]", "value": 550, "unit": "nm"},
      {"measurement": "absorption coefficient at the laser wavelength used", "setting": "[2]; RB at 514 nm, Fl at 488 nm, MB at 661 nm, R-5-P at 488 nm, N-HPT at 351 nm", "value": 33000, "unit": "dm^3 mol^−1 cm^−1"},
      {"measurement": "thermal damage to the cornea", "setting": "cornea; 2.55 W/cm2", "value": "occasionally"},
      {"measurement": "thermal damage to the cornea", "setting": "cornea; 762 to 1524 J/cm2 at 3.82 W/cm2", "value": "could be observed"},
      {"measurement": "thermal damage to the cornea", "setting": "cornea; lowest irradiance 1.27 W/cm2", "value": "not observed"},
      {"measurement": "immediate in vivo bursting pressure", "setting": "[3]; 191 J/cm2, 514 nm, 3.5-mm incision", "value": "495±10", "unit": "mm Hg"},
      {"measurement": "bursting pressure at 14 days", "setting": "[3]; 191 J/cm2, also in control eyes", "value": "exceeded 500 mm Hg"},
      {"measurement": "bursting pressure one day after surgery", "setting": "[3]; 191 J/cm2, same as control eyes", "value": "approximately 450±125 mmHg"},
      {"measurement": "bond between tendon and conduit (breaking force)", "setting": "[4]", "value": "effective bond was formed"}
    ]}
  ]
}
